Molecular target: T1, homomeric GABAAR β3 (Rattus norvegicus, UniProt P63079)
T1 construct: gene Gabrb3
Experiment: BCECF fluorescence, GABA-mediated HCO3- efflux
Format: cell-based
Conditions: 25 mM HCO3-; pH 7.4

T1 sequence (P63079 26-473): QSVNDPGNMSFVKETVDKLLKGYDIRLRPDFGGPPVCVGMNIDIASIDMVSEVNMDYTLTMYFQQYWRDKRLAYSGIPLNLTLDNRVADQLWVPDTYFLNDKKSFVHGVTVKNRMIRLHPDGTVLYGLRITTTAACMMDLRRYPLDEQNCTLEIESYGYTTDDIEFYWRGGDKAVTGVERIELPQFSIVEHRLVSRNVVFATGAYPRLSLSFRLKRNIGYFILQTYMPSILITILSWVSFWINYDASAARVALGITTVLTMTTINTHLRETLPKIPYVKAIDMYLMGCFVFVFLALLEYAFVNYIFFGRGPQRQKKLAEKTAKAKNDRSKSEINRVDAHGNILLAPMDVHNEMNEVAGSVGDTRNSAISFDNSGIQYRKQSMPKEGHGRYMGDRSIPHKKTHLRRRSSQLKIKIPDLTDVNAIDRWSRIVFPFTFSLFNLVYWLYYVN

`NCCCC(=O)O` [GABA] was tested, and the “maximum peak fluorescence change at 100 μM GABA” value was 14.0 ± 1.3%.

Source: paper PMC9917249, “Zinc Inhibits the GABAAR/ATPase during Postnatal Rat Development: The Role of Cysteine Residue” (International Journal of Molecular Sciences, 2023)
